# pKi: −log10 of the molar value.
# Experiments:
# [1] = system: glycine binding site of the NMDA receptor; conditions: cited from earlier work
# [2] = target: glycine/NMDA receptor; experiment: glycine/NMDA receptor affinity (1 μM glycine-stimulated [3H]-MK801 binding, rat brain membranes; also estimated by electrophysiology)
# Procedure: The assay is conducted using rat brain membrane homogenates that are enriched in NMDA receptors. The membranes are prepared as follows. Frozen rat brains (obtained from Pel-Freez, Rogers, Ark.) are homogenized in 15 volumes (w/v) of ice cold 0.32M sucrose. The homogenate is spun at 1,000×g for ten minutes. The supernatant is collected and spun for 20 minutes at 44,000×g. The pellet is suspended in 15 volumes of water (relative to original brain weight). The homogenate is again spun at 44,000×g for twenty minutes. The pellet is resuspended in 5 volumes of water and the suspension is freeze-thawed 2 times. After the final thaw cycle, the suspension is brought to 15 volumes with water and spun at 44,000×g for twenty minutes. The pellet is resuspended in 5 volumes of ice-cold 10 mM HEPES, and is titrated to pH 7.4 with KOH containing 0.04% Triton X-100. […] The volume is then brought to 15 with ice-cold 10 mM HEPES, pH 7.4, and spun/washed three times with spins of 44,000×g between washes. The final pellet is suspended in three volumes of 50 mM HEPES, pH 7.4 and the protein concentration is determined with a standard dye-binding protein assay (Bio-Rad, Richmond, Calif.). The suspension is stored at -80° C. until used. Only HPLC grade water is used for all buffers and suspensions/washings. The extensive washings are necessary to remove as much endogenous glycine from the membrane preparation as possible.
# Nonspecific binding is defined as the […] presence of PCP (final concentration: 100 μM). […] A 500 nM concentration (final) of 5,7-dichlorokynurenic (DCK) acid is added to all assay tubes. This concentration of the glycine antagonist DCK "buffers" most of the residual endogenous glycine that is not removed by the extensive washing steps that are carried out during the membrane preparation procedure.
# Filtration is accomplished using a Brandel 48 well cell harvester. Filtered membranes are washed three times with 3 mL each of ice cold buffer. Filters are transferred to scintillation vials and 5 mL of scintillation cocktail is added. The vials are shaken overnight and the radioactivity is counted by liquid scintillation spectroscopy. The assays are done in triplicate and all experiments are conducted at least three times.
# (§1) The binding affinities at NMDA receptor glycine sites also were estimated by electrophysiological assay either using cloned rat NMDA receptors expressed in Xenopus oocytes, or non-NMDA receptors expressed in oocytes by whole rat brain poly(A)^+ RNA. […] For NMDA receptors Kb s were approximated by averaging values at three subtype combinations (NR1A/NR2A, NR1A/NR2B, and NR1A/NR2C).
# [3] = system: MES-induced seizures; experiment: anticonvulsant activity, maximum electroshock-induced seizure (MES) experiment in mice; type: in vivo, mouse; conditions: for ED50: Mus musculus, iv, read-out: ED50 as an anticonvulsant in MES experiment
# Procedure: The anticonvulsant activity of the glycine antagonists may be assessed in the maximum electroshock-induced seizure (MES) assay in mice. […] The seizure stimulus parameters were: 50 mA, 60 Hz, rectangular pulse, width 0.8 msec, duration 200 msec. Tonic hind limb extension observed after application of the electrical stimulus was recorded as occurrence of seizure. The drug was applied i.v. as an aqueous basic solution.
# [4] = system: MES-induced tonic clonic seizures; experiment: Example 35: time course and potency in maximum electroshock (MES) model, i.v., mice; type: in vivo, Swiss-Webster mouse; conditions: for protection of mice at the lowest dose: 2 minutes; for animals showing no tonic seizures: 2 minutes after i.v. 5 mg/kg (6-chloro-8-(N-oxy)aza) or 10 mg/kg (6-chloro-7-methyl-8-(N-oxy)aza); for mice protected against seizures: 15 minutes after i.v. 5 mg/kg (6-chloro-8-(N-oxy)aza) or 10 mg/kg (6-chloro-7-methyl-8-(N-oxy)aza); for ED50: Mus musculus, iv, 2 min, Litchfield and Wilcoxon, read-out: ED50, inhibition of MES-induced seizures; for ED50 / 95% confidence limits of ED50 / inhibition of MES-induced seizures / time of maximal anti-MES effect: i.v.; for ED50 / 95% confidence limits of ED50: 2 minutes post injection; for efficacy in inhibiting MES-induced tonic seizures over time: i.v. time course, 2-60 minutes; for inhibition of MES-induced seizures: dose dependence; for time of maximal anti-MES effect: post-injection
# Description: The objectives of the studies were to determine the time of maximal effect and potency for compounds 6-chloro-8-(N-oxy)aza-1,4-dihydroquinoxaline-2,3-dione and 6-chloro-7-methyl-8-(N-oxy)aza-1,4-dihydroquinoxaline-2,3-dione in the inhibition of maximal electroshock (MES)-induced tonic clonic seizures following intravenous (i.v.) administration in mice.
# The time-course study involved a one-factor, between groups design in which animals were divided into groups based on the time between administration of 6-chloro-8-(N-oxy)aza-1,4-dihydroquinoxaline-2,3-dione and 6-chloro-7-methyl-8-(N-oxy)aza-1,4-dihydroquinoxaline-2,3-dione and the MES stimulus. Similarly, the potency study involved a one-factor, between group design in which animals were divided into groups based on drug dose. Each group in both studies consisted of 8 animals.
# 6-Chloro-8-(N-oxy)aza-1,4-dihydroquinoxaline-2,3-dione and 6-chloro-7-methyl-8-(N-oxy)aza-1,4-dihydroquinoxaline-2,3-dione were dissolved in 0.05M Tris (J. T. Baker) at concentrations of 5 mg/mL and 2.5 mg/mL, respectively.
# Experiments were conducted with Swiss-Webster male mice (Simonsen Lab. Inc.). Mice were 5-6 weeks old and weighed 18-24 g upon arrival in the laboratory. In the time course study, mice were treated with an i.v. injection of 6-chloro-8-(N-oxy)aza-1,4-dihydroquinoxaline-2,3-dione (5 mg/kg) or 6-chloro-7-methyl-8-(N-oxy)aza-1,4-dihydroquinoxaline-2,3-dione(10 mg/kg) or vehicle. Mice were tested at 2, 15, 30, or 60 minutes after vehicle or drug administration. […] The electroshock device was a Ugo Basile ECT Unit 7801 (Varese, Italy; Model 24093). The electroshock characteristics were as follows: 50 mA, 60 pulses per second, […], and a 0.2 second train length. […] Tonic seizures were defined as the tonic extension of the forelimbs and hindlimbs. […] Therefore, the result from each animal was an all-or-none phenomenon with either a seizure present or absent following the shock administration. The time point at which 6-chloro-8-(N-oxy)aza-1,4-dihydroquinoxaline-2,3-dione and 6-chloro-7-methyl-8-(N-oxy)aza-1,4-dihydroquinoxaline-2,3-dione produced a maximal response was determinated by analyzing the graphical results. The dose at which 50% of the animals were protected against MES-induced seizures (ED50) was calculated by Litchfield and Wilcoxon Method (Pharm/PCS R. J. Tallarida & R. B. Murray Version 4.2).
# [5] = blood-brain-barrier crossing inferred from Ki and MES ED50; type: in vivo, mouse
# [6] = system: focal cerebral ischemia (MCA occlusion); experiment: rat model of permanent focal cerebral ischemia (MCA occlusion), infarct volume; type: in vivo, Sprague-Dawley rat
# Procedure: Male Sprague-Dawley rats ([…]) were intubated and maintained under anesthesia with ±2% of halothane. Body temperature was maintained at 37.5° C. during surgery by means of a warming pad and a rectal probe connected to the control unit. The common carotid arteries (CCA) were isolated and a loose silk ligature was placed around each CCA. A vertical skin incision was made between the left orbit and the auditory canal, posterior part of zygoma removed, and a small opening (2.0/2.5 mm) drilled dorsorostrally to the foramen ovale under constant saline irrigation. The dura was opened with a microsurgical hook and the brain gently retracted with a fine spatula to expose the bifurcation of the internal carotid artery and the middle cerebral artery. The ipsilateral CCA was ligated and the MCA coagulated from its origin to the olfactory tract. Two hours after MCA occlusion, the clip from the contralateral CCA was removed. […]
# Brains were sliced into 2 mm blocks and stained with tetrazolium red (2,3,5-triphenyl tetrazolium chloride). The areas of brain damage were assessed using an image analyzer (Image-1, Universal Imaging Corporation, PA) to determine the volume of cortical and subcortical infarction by integration of areas and the distance between each level.
# [7] = target: non-NMDA receptor; experiment: non-NMDA receptor affinity; type: binding, rat
# Procedure: (§2) Filtered membranes are washed three times with 3 mL each of ice cold buffer.
# as §2, §1
# [8] = system: PCP-like behavioral effects; conditions: in vivo; cited from earlier work
# [9] = system: katalepsy; conditions: pigeons; cited from earlier work
# [10] = system: brain ischemia / neurons; conditions: cited from earlier work
# [11] = 20 mg/kg bolus + 14 mg/kg/h for 22 h, 30 min after MCA occlusion
structure (smiles),measurement,setting,value
"O=C(O)c1cc(O)c2c(Cl)cc(Cl)cc2n1 [5,7-dichlorokynurenic acid]",receptor binding affinity in vitro,[1],relatively high receptor binding affinity in vitro
"O=c1[nH]c2cc(Cl)c(Cl)[n+]([O-])c2[nH]c1=O [6,7-Dichloro-8(N-oxy)aza-1,4-dihydroquinoxaline-2,3-dione]",pKi,[2],7.00
same,ED50,[3],7.5 mg/kg
"O=c1[nH]c2cc(Cl)c(Cl)c([N+](=O)[O-])c2[nH]c1=O [6,7-dichloro-5-nitro-1,4-dihydroquinoxaline-2,3-dione, reference compound]",pKi,[2],8.48
same,ED50 as an anticonvulsant in MES experiment,[3],4 to 5 mg/kg
"O=c1[nH]c2cc(Br)c[n+]([O-])c2[nH]c1=O [6-Bromo-8-(N-oxy)aza-1,4-dihydroquinoxaline-2,3-dione]",pKi,[2],6.00
same,ED50,[3],1 to 1.5 mg/kg
"Cc1c(Cl)cc2[nH]c(=O)c(=O)[nH]c2[n+]1[O-] [6-Chloro-7-methyl-8-(N-oxy)aza-1,4-dihydroquinoxaline-2,3-dione]",pKi,[2],7.30
same,ED50,[3],7 mg/kg
same,protection of mice at the lowest dose,[4]; 4 mg/kg i.v.,12.5%
same,animals showing no tonic seizures,[4],8/8
same,mice protected against seizures,[4],3/8
same,ED50,[4],6.71 mg/kg
same,efficacy in inhibiting MES-induced tonic seizures over time,[4],decreased over one hour
same,95% confidence limits of ED50,[4],5.48 to 8.22 mg/kg
same,inhibition of MES-induced seizures,[4],"dose dependently, inhibited MES-induced seizures"
same,time of maximal anti-MES effect,[4],2 min
"[O-][n+]1cc(Cl)cc2nc(O)c(O)nc21 [6-Chloro-8-(N-oxy)aza-1,4-dihydroquinoxaline-2,3-dione]","blood-brain-barrier crossing relative to 6,7-dichloro-5-nitro-1,4-dihydroquinoxaline-2,3-dione",[5],about 1000 times
same,pKi,[2],6.22
same,ED50,[3],1 to 1.5 mg/kg
same,protection of mice at the lowest dose,[4]; 0.5 mg/kg i.v.,25%
same,animals showing no tonic seizures,[4],8/8
same,mice protected against seizures,[4],4/8
same,ED50,[4],1.26 mg/kg
same,efficacy in inhibiting MES-induced tonic seizures over time,[4],decreased over one hour
same,95% confidence limits of ED50,[4],0.94 to 1.67 mg/kg
same,inhibition of MES-induced seizures,[4],"dose dependently, inhibited MES-induced seizures"
same,time of maximal anti-MES effect,[4],2 min
same,protection at the lower dose,"[6]; 10 mg/kg bolus + 7 mg/kg/h for 22 h, immediately after MCA occlusion",no protection
same,reduction in cortical infarct volume,[6]; [11],70%
same,reduction in subcortex infarct volume,[6]; [11],35%
same,reduction in cortical infarct volume,"[6]; 20 mg/kg bolus + 14 mg/kg/h for 22 h i.v., immediately after MCA occlusion",67%
same,neuroprotection,[6]; rat model of focal ischemia,significant neuroprotection
"Cc1cc2[nH]c(=O)c(=O)[nH]c2[n+]([O-])c1 [6-Methyl-8-(N-oxy)aza-1,4-dihydroquinoxaline-2,3-dione]",pKi,[2],5.62
same,ED50,[3],1 to 1.5 mg/kg
O=C(O)c1cc(O)c2ccc(Cl)cc2n1 [7-Cl-kynurenic acid],receptor binding affinity in vitro,[1],relatively high receptor binding affinity in vitro
"O=c1[nH]c2cc(Cl)cnc2[nH]c1=O [Compound 5, 6-Chloro-8-aza-1,4-dihydroquinoxaline-2,3-dione]",activity relative to corresponding QX,[2],about as active as the corresponding 6-chloro-QX
"O=c1[nH]c2cc(Cl)c(Cl)nc2[nH]c1=O [Compound 6, 6,7-Dichloro-8-aza-1,4-dihydroquinoxaline-2,3-dione]",pKi,[2],~6.70
"Cc1nc2[nH]c(=O)c(=O)[nH]c2cc1Br [Compound 8, 6-Bromo-7-methyl-8-aza-1,4-dihydroquinoxaline-2,3-dione]",pKi,[2],~6.70
"O=c1[nH]c2ccncc2[nH]c1=O [Compound 11, 6-Aza-1,4-dihydroquinoxaline-2,3-dione]",activity relative to corresponding QX,[2],about as active as QX
"O=c1[nH]c2cncnc2[nH]c1=O [Compound 13, 6,8-Diaza-1,4-dihydroquinoxaline-2,3-dione]",activity relative to corresponding QX,[2],about as active as QX
"O=c1[nH]c2cc([N+](=O)[O-])c[n+]([O-])c2[nH]c1=O [Compound 64, 7-Nitro-5-(N-oxy)aza-1,4-dihydroquinoxaline-2,3-dione]",pKi,[7],6.47
same,pKi,[2],6.89
same,ED50,[3],3 to 4 mg/kg
NC1CCN(O)C1=O (stereo not shown) [HA-966],agonist character,[1],partial agonist
same,receptor binding affinity in vitro,[1],micromolar affinity for the glycine binding site
"c1ccc(C2(N3CCCCC3)CCCCC2)cc1 [PCP, phencyclidine]",PCP-like behavioral side effects,[8],behavioral excitation (hyperlocomotion) in rodents
same,katalepsy,[9],characteristic katalepsy in pigeons
same,neuroprotective efficacy,[10],neuroprotective efficacy both in vitro and in vivo
COc1ccc2c(c1)[C@]13CCCC[C@@H]1[C@H](C2)N(C)CC3 [dextromethorphan],neuroprotective efficacy,[10],neuroprotective efficacy both in vitro and in vivo
O=C(O)c1cc2ccccc2[nH]1 [indole-2-carboxylic acid],receptor binding affinity in vitro,[1],relatively high receptor binding affinity in vitro
CNC1(c2ccccc2Cl)CCCCC1=O (stereo not shown) [ketamine],neuroprotective efficacy,[10],neuroprotective efficacy both in vitro and in vivo

# Source: patent US5863916A, “8-aza, 6-aza and 6,8-diaza-1,4-dihydroquinoxaline-2,3-diones and the use thereof as antagonists for the glycine/NMDA receptor” (priority 1997, dated 1999)
